Results taken from article PMC10424242, “Macrocyclic Peptidomimetic Plasmepsin X Inhibitors with Potent In Vitro and In Vivo Antimalarial Activity” (Journal of Medicinal Chemistry, 2023).
Entries after “also recorded” stand apart in the source; their conditions may differ. Read-outs that look alike come from different tables or passages of the source.

How the values were obtained:
[1] = Liver microsomal metabolic stability; format: in vitro ADME, mouse; settings: pooled liver microsomes, pH 7.4, mouse liver microsomes, 5 μM; for microsomal CLint at 1 h, 5 μM: read-out: microsomal stability CL(int)
Method: Microsomal stability assays are performed as described elsewhere.[41] Test compounds and pooled mouse liver microsomes are incubated in potassium phosphate buffer in the presence of the cofactor NADPH at 37 °C. Reaction mixtures (700 μL) contain a final concentration of 5 μM test compound, 0.05% DMSO, 0.5 mg/mL microsomes, and ∼0.7–0.9 mM NADPH in 100 mM potassium phosphate buffer at pH 7.4. Reactions are terminated by the addition of 100 μL of the reaction mixture to 900 μL of acetonitrile after 0, 5, 15, 30, 45, and 60 min of incubation. Samples were centrifuged, and the resultant supernatant was analyzed by ultra-performance liquid chromatography–tandem mass spectrometry (UPLC-MS/MS). The amount of remaining compound is calculated and compared to the initial amount of test compound (zero time point). Verapamil is used as a positive control, and samples prepared without cofactor NADPH are used as a negative control (0 and 60 min). The in vitro metabolic stability parameters (half-life value (t1/2) and intrinsic clearance value (Clint)) are calculated from the slope of the Ln of concentration remaining vs the time curve.

[2] = molecular target: recombinant P. falciparum PMX (Plasmodium falciparum, UniProt Q8IAS0); assay: Recombinant P. falciparum PMX inhibition assay (fluorogenic substrate Rh2N); format: biochemical
Method: The fluorescence of this peptide is quenched by the spatial proximity of the DABCYL/EDANS groups in the uncleaved peptide and is increased upon cleavage at the internal F–I bond. […] Control wells contained no inhibitor, and the plate was blanked against the substrate only in DB. […] All experiments were performed in duplicate.

[3] = Plasma protein binding (rapid equilibrium dialysis); format: in vitro ADME; settings: pH 7.4, mouse plasma, 2 h at 37 °C
Method: Plasma protein binding was performed with rapid equilibrium dialysis (RED) device inserts containing a dialysis membrane with a molecular weight cut-off of 8000 Daltons. Inserts were placed in the single-use RED plate without prior preparation.
The test compound at a concentration of 5 μM was added to mouse plasma and dialyzed against phosphate-buffered saline (PBS, pH 7.4) for 2 h at 37 °C. Propranolol hydrochloride was used as a positive control (high PPB), and fluconazole was used as negative control (low PPB). After dialysis, the drug concentration in the buffer and plasma compartments was quantified by liquid chromatography and tandem mass spectrometry (LC-MS/MS) analysis.

PMIV = PMIV (Plasmodium falciparum, UniProt Q8IM16); assay: FRET-based PMIV inhibition assay; format: biochemical, P. falciparum
Method: (§1) A fluorescence resonance energy transfer (FRET)-based assay was performed to assess the ability of the compounds to inhibit PMIV, CatD, and BACE1. Serial dilutions of test compounds were dispensed in a white 96-well plate. […] The mixture was incubated for 20 min at 37 °C. […] IC50 values were calculated with GraphPad Prism 8.0 using the nonlinear regression, variable slope (four parameters). Compounds were tested in triplicate.

BACE1 = BACE1 (Homo sapiens, UniProt P56817); assay: FRET-based BACE1 inhibition assay (selectivity counter screen); format: biochemical
Method: as §1

cathepsin D (CatD) = cathepsin D (CatD) (Homo sapiens, UniProt P07339); assay: FRET-based CatD inhibition assay (selectivity counter screen); format: biochemical
Method: as §1

[4] = system: P. falciparum Pf3D7^0087/N9; assay: In vivo efficacy against P. falciparum in the TAD PfalcHuMouse model; settings: three times a day for 4 days at 40 mg/kg, oral; 40 mg/kg
Method: Therapeutic efficacy studies were performed at TAD using a standardized humanized mouse model of P. falciparum malaria[31] with modifications.[34] […] The volume of injections was 1 and 0.7 mL for i.p. or i.v. inoculation, respectively.
The inoculum was obtained from peripheral blood of CO2-euthanized donor mice harboring 5–10% parasitemia.
Before drug administration, each infected mouse was randomly assigned to its corresponding treatment. […] The treatment was administered by oral gavage with 20G straight reusable feeding needles (Fine Science Tools GmbH) at 10 mL·kgbodyweight^–1 unless otherwise stated.
Parasitemia was measured in serial 2 μL of samples of tail blood by flow cytometry and expressed as the % of parasitized erythrocytes with respect to the total erythrocytes in circulation.
The clearance of parasitized erythrocytes from the peripheral blood of mice was assessed by measuring the parasite reduction ratio (PRR) calculated as the ratio between parasitemia at Day n + 2 divided by parasitemia at Day n for each individual of the study.
The parasiticidal effect of drugs in vivo was assessed by measuring the day of recrudescence (DoR) as described.[34] In short, DoR was defined as the day at which parasitemia after drug treatment reached the % parasitemia at treatment inception. Drug-treated mice were deemed cured if there was no detectable parasitemia 60 days after treatment.

[5] = recombinant PMX, read-out: PMX, nM (IC50)
[6] = Table 3, read-out: PMIV, nM (as listed in Table 3)
[7] = Table 3, read-out: PMX, nM (as listed in Table 3)

Chain of cathepsin D (CatD) (P07339 65-412): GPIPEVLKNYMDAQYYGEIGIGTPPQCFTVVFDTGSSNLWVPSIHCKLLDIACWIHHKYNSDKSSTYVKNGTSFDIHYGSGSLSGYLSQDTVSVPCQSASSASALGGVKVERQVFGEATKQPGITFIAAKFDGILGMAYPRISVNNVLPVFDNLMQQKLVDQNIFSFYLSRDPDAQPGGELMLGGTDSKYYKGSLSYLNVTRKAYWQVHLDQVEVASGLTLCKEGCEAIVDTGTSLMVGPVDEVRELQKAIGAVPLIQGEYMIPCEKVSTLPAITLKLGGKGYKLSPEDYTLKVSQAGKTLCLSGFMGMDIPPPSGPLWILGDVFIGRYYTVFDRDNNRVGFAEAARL
Chain of recombinant P. falciparum PMX (Q8IAS0 222-573): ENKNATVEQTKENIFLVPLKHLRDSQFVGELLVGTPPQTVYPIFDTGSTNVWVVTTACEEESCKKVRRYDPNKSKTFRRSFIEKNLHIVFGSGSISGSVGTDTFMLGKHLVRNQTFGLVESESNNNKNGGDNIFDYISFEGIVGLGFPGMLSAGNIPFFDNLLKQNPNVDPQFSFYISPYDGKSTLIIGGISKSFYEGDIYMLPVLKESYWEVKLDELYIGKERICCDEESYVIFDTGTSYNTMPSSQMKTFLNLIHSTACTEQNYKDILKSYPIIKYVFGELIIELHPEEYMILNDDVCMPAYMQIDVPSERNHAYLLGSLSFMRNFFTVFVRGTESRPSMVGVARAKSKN
Chain of BACE1 (P56817 46-501): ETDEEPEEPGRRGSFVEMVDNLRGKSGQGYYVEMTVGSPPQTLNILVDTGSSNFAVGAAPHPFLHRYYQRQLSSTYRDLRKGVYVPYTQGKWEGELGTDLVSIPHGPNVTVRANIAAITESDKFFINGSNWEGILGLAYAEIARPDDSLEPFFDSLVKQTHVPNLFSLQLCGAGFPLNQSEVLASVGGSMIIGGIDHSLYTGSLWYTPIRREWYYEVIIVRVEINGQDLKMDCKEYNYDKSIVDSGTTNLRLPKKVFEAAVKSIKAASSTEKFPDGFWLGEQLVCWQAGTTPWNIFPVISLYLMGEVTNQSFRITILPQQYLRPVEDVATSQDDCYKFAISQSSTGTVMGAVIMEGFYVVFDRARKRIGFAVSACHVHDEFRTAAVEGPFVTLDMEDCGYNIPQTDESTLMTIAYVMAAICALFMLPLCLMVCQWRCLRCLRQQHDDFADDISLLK
Chain of PMIV (Q8IM16 122-449): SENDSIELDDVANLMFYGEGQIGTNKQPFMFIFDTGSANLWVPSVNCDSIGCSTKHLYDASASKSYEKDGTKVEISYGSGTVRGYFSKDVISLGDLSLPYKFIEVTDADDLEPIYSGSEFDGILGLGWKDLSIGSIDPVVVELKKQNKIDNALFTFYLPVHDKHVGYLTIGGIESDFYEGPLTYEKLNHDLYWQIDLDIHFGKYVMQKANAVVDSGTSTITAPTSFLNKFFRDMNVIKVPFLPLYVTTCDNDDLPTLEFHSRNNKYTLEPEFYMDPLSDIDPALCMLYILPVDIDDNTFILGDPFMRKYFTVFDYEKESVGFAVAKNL

## CCCN(CCC)C(=O)c1cccc(C(=O)N[C@@H](Cc2ccccc2)[C@H](O)CNC(C)(C)c2cccc(OC)c2)c1 [6a]
[1]
  half-life at 1 h, 5 μM: 6.4 min
  microsomal CLint at 1 h, 5 μM: 216 µL/min/mg
[2]; [5]
  IC50: 6.2 ± 0.3 nM
[3]
  fraction unbound at 2 h, 5 µM: 0.009

## COc1cccc(C(C)(C)NC[C@@H](O)[C@@H]2Cc3cccc(c3)OCCCCNC(=O)c3cccc(c3)C(=O)N2)c1 [7b, (S)-4-((R)-1-Hydroxy-2-((2-(3-methoxyphenyl)propan-2-yl)amino)ethyl)-7-oxa-3,12-diaza-1,6(1,3)-dibenzenacyclotridecaphane-2,13-dione]
PMIV
  IC50: 60 ± 3 nM
PMIV; read-out: PMIV, nM (IC50)
  IC50: 510 ± 30 nM
[1]
  half-life at 1 h, 5 μM: 31.3 min
  microsomal CLint at 1 h, 5 μM: 44.3 µL/min/mg
BACE1
  IC50: 910 ± 40 nM
[2]
  IC50: 4.1 ± 0.3 nM
[2]; [5]
  IC50: 11.2 ± 0.7 nM
Cathepsin D (CatD)
  IC50: 650 ± 30 nM
[3]
  fraction unbound at 2 h, 5 µM: 0.0274

## COc1cccc(C(C)(C)NC[C@@H](O)[C@@H]2Cc3cccc(c3)OCCCCN(C)C(=O)c3cccc(c3)C(=O)N2)c1 [7c, (S)-4-((R)-1-Hydroxy-2-((2-(3-methoxyphenyl)propan-2-yl)amino)ethyl)-12-methyl-7-oxa-3,12-diaza-1,6(1,3)-dibenzenacyclotridecaphane-2,13-dione]
PMIV
  IC50: 510 ± 30 nM
PMIV; read-out: PMIV, nM (IC50)
  IC50: 170 ± 20 nM
[1]
  half-life at 1 h, 5 μM: 16.9 min
  microsomal CLint at 1 h, 5 μM: 81.9 µL/min/mg
BACE1
  IC50: 1030 ± 50 nM
[2]
  IC50: 11.2 ± 0.7 nM
[2]; [5]
  IC50: 5.3 ± 3 nM
Cathepsin D (CatD)
  IC50: 320 ± 20 nM
[3]
  fraction unbound at 2 h, 5 µM: 0.0351

## COc1cccc(C(C)(C)NC[C@@H](O)[C@@H]2Cc3cccc(c3)OCCCCN(CCC(F)(F)F)C(=O)c3cccc(c3)C(=O)N2)c1 [7d, (S)-4-((R)-1-Hydroxy-2-((2-(3-methoxyphenyl)propan-2-yl)amino)ethyl)-12-(3,3,3-trifluoropropyl)-7-oxa-3,12-diaza-1,6(1,3)-dibenzenacyclotridecaphane-2,13-dione]
PMIV
  IC50: 170 ± 20 nM
PMIV; read-out: PMIV, nM (IC50)
  IC50: 61 ± 4 nM
[1]
  half-life at 1 h, 5 μM: 20.4 min
  microsomal CLint at 1 h, 5 μM: 67.9 µL/min/mg
BACE1
  IC50: 2100 ± 100 nM
[2]
  IC50: 5.3 ± 3 nM
[2]; [5]
  IC50: 8.6 ± 2.4 nM
Cathepsin D (CatD)
  IC50: 230 ± 20 nM
[3]
  fraction unbound at 2 h, 5 µM: 0.0125

## COc1cccc(C(C)(C)NC[C@@H](O)[C@@H]2Cc3cccc(c3)OCCCCN(CC(C)(C)C)C(=O)c3cccc(c3)C(=O)N2)c1 [7e]
PMIV
  IC50: 61 ± 4 nM
PMIV; read-out: PMIV, nM (IC50)
  IC50: 40 nM
[1]
  half-life at 1 h, 5 μM: 13.7 min
  microsomal CLint at 1 h, 5 μM: 101 µL/min/mg
BACE1
  IC50: 1900 ± 100 nM
[2]
  IC50: 8.6 ± 2.4 nM
[2]; [5]
  IC50: 2.5 ± 0.2 nM
Cathepsin D (CatD)
  IC50: 630 nM
[3]
  fraction unbound at 2 h, 5 µM: 0.0035

## COc1cccc(C(C)(C)NC[C@@H](O)[C@@H]2Cc3cccc(c3)OCCCCN(CCN(C)C)C(=O)c3cccc(c3)C(=O)N2)c1 [7f, (S)-12-(2-(Dimethylamino)ethyl)-4-((R)-1-hydroxy-2-((2-(3-methoxyphenyl)propan-2-yl)amino)ethyl)-7-oxa-3,12-diaza-1,6(1,3)-dibenzenacyclotridecaphane-2,13-dione]
PMIV
  IC50: 40 nM
PMIV; read-out: PMIV, nM (IC50)
  IC50: 1730 ± 90 nM
[1]
  half-life at 5 μM: > 120 min
BACE1
  IC50: 52400 ± 1600 nM
[4]
  effect on parasite burden: only a weak effect on parasite burden; also recorded: measurable reduction in parasitemia
[2]
  IC50: 2.5 ± 0.2 nM
[2]; compared to analogue 7a
  reduction of PMX inhibitory potency: 4 fold
[2]; [5]
  IC50: 16.7 ± 1.5 nM
Cathepsin D (CatD)
  IC50: 6800 ± 340 nM
[3]
  fraction unbound at 2 h, 5 µM: 0.0695

## CCCN1CCCCCOc2cccc(c2)C[C@@H]([C@H](O)CNC(C)(C)c2cccc(OC)c2)NC(=O)c2cccc(c2)C1=O [7g, (S)-4-((R)-1-Hydroxy-2-((2-(3-methoxyphenyl)propan-2-yl)amino)ethyl)-13-propyl-7-oxa-3,13-diaza-1,6(1,3)-dibenzenacyclotetradecaphane-2,14-dione]
PMIV; [6]
  IC50: 190 nM
PMIV; read-out: PMIV, nM (IC50)
  IC50: 190 nM
[1]
  half-life at 1 h, 5 μM: 7.64 min
  microsomal CLint at 1 h, 5 μM: 181 µL/min/mg
BACE1
  IC50: 6000 ± 300 nM
[2]; [7]
  IC50: 6.9 ± 0.49 nM
[2]; [5]
  IC50: 6.9 ± 0.49 nM
Cathepsin D (CatD)
  IC50: 1200 nM
[3]
  fraction unbound at 2 h, 5 µM: 0.0079

## CCCN1CCOc2cccc(c2)C[C@@H]([C@H](O)CNC(C)(C)c2cccc(OC)c2)NC(=O)c2cccc(c2)C1=O [7h]
PMIV; [6]
  IC50: 200 nM
PMIV; read-out: PMIV, nM (IC50)
  IC50: 200 nM
[1]
  half-life at 1 h, 5 μM: 13.9 min
  microsomal CLint at 1 h, 5 μM: 99.8 µL/min/mg
BACE1
  IC50: 1850 ± 90 nM
[2]; [7]
  IC50: 6.8 ± 0.59 nM
[2]; [5]
  IC50: 6.8 ± 0.59 nM
Cathepsin D (CatD)
  IC50: 600 nM
[3]
  fraction unbound at 2 h, 5 µM: 0.0384

## CCCN1CCOCCc2cccc(c2)C[C@@H]([C@H](O)CNC(C)(C)c2cccc(OC)c2)NC(=O)c2cccc(c2)C1=O [7i, (S)-4-((R)-1-Hydroxy-2-((2-(3-methoxyphenyl)propan-2-yl)amino)ethyl)-12-propyl-9-oxa-3,12-diaza-1,6(1,3)-dibenzenacyclotridecaphane-2,13-dione]
PMIV; [6]
  IC50: 81 ± 4 nM
PMIV; read-out: PMIV, nM (IC50)
  IC50: 81 ± 4 nM
[1]
  half-life at 1 h, 5 μM: 8.39 min
  microsomal CLint at 1 h, 5 μM: 165 µL/min/mg
BACE1
  IC50: 22700 ± 1100 nM
[2]; [7]
  IC50: 4.6 ± 0.07 nM
[2]; [5]
  IC50: 4.6 ± 0.07 nM
Cathepsin D (CatD)
  IC50: 1650 ± 80 nM
[3]
  fraction unbound at 2 h, 5 µM: 0.0287
